Data taken from patent publication US8664209B2, “Daptomycin for multiple sclerosis” (priority 2009, dated 2014).
Where two headings read alike, the source gives them in different places.

Experiments:
Type in all cases: in vivo, human
[1] = tested on: person with multiple sclerosis with almost weekly relapses; test: Patient B case: daptomycin for relapses (Example 2); settings: for ambulation: acute relapse (nonambulatory)
From the text: This is described in more detail in Example 2. Patient B is a person who was first diagnosed with multiple sclerosis in 1981. The course of their illness was characterized through the years by increasingly frequent relapses and progressive disability. They had initially been treated with azathioprine and, subsequently with interferons, including Betaseron™ and Avonex®, and Copaxone®. As adjunct treatments, they received innumerable courses of intravenous methylprednisolone, as well as cyclophosphamide, since 2005. In addition, they have also received mycophenylate mofetil, plasma exchange monthly, intravenous immunoglobulin monthly, natalizumab, daclizumab and rituximab. None of these regimens adequately controlled their many relapses, which were characterized by worsening gait and appendicular ataxia, weakness in their limbs, vertigo and diplopia and severe migraine headaches. In late 2008 and 2009, they were hospitalized seven times for relapses. Since 2005, they had received more than 50 courses of steroid and/or cyclophosphamide treatments for relapses not requiring hospitalization. These treatments would induce partial and short lasting remissions. During 2009, they were having relapses on a weekly basis. During remissions, they were able to walk only with a walker. Daptomycin 4 mg/kg intravenously [hereinafter “IV”] was administered to patient B for five days for an acute relapse which made the patient nonambulatory. […] They did have an allergic reaction with chest tightness and blistering at the injection site that was determined to be caused by the tape securing their IV catheter. […] Daptomycin 4 mg/kg/IV was administered for five additional days with pretreatment with solumedrol in the total amount of 100 mg IV and diphenhydramine in the total amount of 50 mg IV with improvement. Daptomycin was then ordered 4 mg/kg/IV once a week. Three days after their first weekly dose, they began to feel more off balanced and their headache became more severe. Daptomycin orders were revised to 4 mg/kg IV once a week in co-administration with solumedrol 1 gram IV.

[2] = tested on: person with secondary progressive multiple sclerosis (SPMS); test: Patient A case: daptomycin given for MRSA infection (Examples 1, 3); settings: for muscle and nerve pain, muscle stiffness: patient-reported
From the text: The novel use of daptomycin in the treatment and/or prevention of multiple sclerosis in mammals, particularly human, is based on the recent observation of a patient (Patient A) with multiple sclerosis whose progressive neurological disability stabilized after treatment with daptomycin for skin infections caused by methicillin resistant Staphalococcus aureus. Previously, their neurological disability had progressed despite treatment with standard FDA approved therapies as well as investigational therapies, some of which they developed severe allergic reactions to. […] More detail about Patient A is provided in Example 3. Patient A is a person who has suffered from multiple sclerosis. Their disease started with left arm and leg weakness. During the early course of the disease, they experienced frequent relapses. Progressive relapsing continued, with increasing lower extremity weakness. The patient characterized their left arm as feeling like dead weight. Patient A developed diverticulitis in 2006. Their EDSS (Expanded Disability Status Scale) was 5.5 in February, 2007, i.e., patient was able to walk 100 meters without aid or rest; their EDSS was 6.0 by the end of the year, i.e., patient required intermittent or constant assistance with a cane, crutch or brace to walk 100 meters. Daptomycin therapy was initiated to treat a MRSA infection after Patient A had knee surgery. They received a daptomycin dose of 100 mg for four weeks. Three months later, they had re-treatment with 500 mg daily for about four weeks.

[3] = tested on: patients with progressive and relapsing forms of multiple sclerosis
Procedure: Seventeen patients with relapsing remitting (4 patients) and chronic progressive multiple sclerosis […] have received daptomycin therapy at 4 mg/kg IV for periods ranging from five to 21 days. This patient group included Patient A and Patient B from the above examples.
Four out of seventeen patients have received daptomycin for acute relapses, after not responding to, or wishing to be taken of, solumedrol therapy.
Thirteen patients with chronic progressive multiple sclerosis received daptomycin therapy for symptoms of multiple sclerosis that were progressing, or to improve present symptoms. […] In all chronic progressive patients who report responses to the drug, maintenance doses starting with once a week with or without the addition of intravenous corticosteroids are given. Doses of daptomycin 2 mg/kg are given to patients who report fatigue as a significant side effect.
Overall, in the same study, daptomycin was administered to a total of 30 patients. 14 responded to treatment (47%).
Daptomycin was administered as a daily IV infusion at 3 mg/kg, 4 mg/kg or 6 mg/kg as per standard guidelines for 5 to 21 days, then as a maintenance dose of 3 mg/kg, 4 mg/kg or 6 mg/kg once every one to four weeks. Patients were monitored by telephone calls. CPK levels were done as clinically indicated. Patients were selected on the basis of failure or intolerance on other treatments and continued disease activity.

[4] = Patient A, listed as daptomycin
[5] = RPMS (relapsing progressive MS)
[6] = patient thirteen, SPMS, DD 4 yrs, EDSS pretx 4, 4 mg/kg/d × five days (relapse), status D (discontinued)
[7] = secondary progressive MS (SPMS)

CCCCCCCCCC(=O)N[C@@H](Cc1c[nH]c2ccccc12)C(=O)N[C@H](CC(N)=O)C(=O)N[C@@H](CC(=O)O)C(=O)N[C@@H]1C(=O)NCC(=O)N[C@@H](CCCN)C(=O)N[C@@H](CC(=O)O)C(=O)N[C@H](C)C(=O)N[C@@H](CC(=O)O)C(=O)NCC(=O)N[C@H](CO)C(=O)N[C@@H]([C@H](C)CC(=O)O)C(=O)N[C@@H](CC(=O)c2ccccc2N)C(=O)O[C@@H]1C [Daptomycin, N-decanoyl-L-trypotophyl-D-asparaginyl-L-aspartyl-L-threonylglycyl-L-ornithyl-L-aspartyl-D-alanyl-L-aspartylglycyl-D-seryl-threo-3-methyl-L-glutamyl-3-anthraniloyl-L-alanine ε1-lactone]
ambulation ([1]; 4 mg/kg IV for five days, third day): able to walk with their walker | ambulation ([1]; 4 mg/kg IV, after five days): able to take a few steps without their walker | duration of stability after initial course ([1]; after initial 4 mg/kg IV for five days, then recurrence of ataxia and increased headaches, less severe): stable for approximately one week | response of relapses ([1]; consecutive courses of daptomycin for three to five days): respond very rapidly | frequency of relapses ([1]; daptomycin at regular intervals (4 mg/kg IV once a week with solumedrol 1 gram IV)): marked decrease in the frequency of their relapses | frequency of relapses and neurological disability ([1]; intravenous daptomycin 4 mg/kg): stabilized both in terms of the frequency of their relapses and neurological disability | left upper extremity strength, sensation, numbness ([2]; Patient A): numbness in their left arm was improved | walking ([2]; Patient A, after the first daptomycin treatment (100 mg for four weeks)): slight improvement in walking | gait / need of cane ([2]; Patient A, after the second treatment (500 mg daily about four weeks)): did not require their cane, but could walk unassisted | progressive neurological disability ([2]; Patient A, after treatment with daptomycin for MRSA skin infections): stabilized | walking ([2]; Patient A, during and after treatment): able to walk extended distances without their cane | EDSS (Expanded Disability Status Scale) ([2]; Patient A, four weeks after discontinuing daptomycin, EDSS was 6.0 before, 100 mg for four weeks, re-treatment 500 mg daily about four weeks): 2.5 | muscle and nerve pain, muscle stiffness ([2]; Patient A): improvement in muscle pain and stiffness | muscle and nerve pain, muscle stiffness [2, 4]: significant decrease in their muscle and nerve pain as well as muscle stiffness | left upper extremity strength, sensation, numbness [2, 4]: increase in strength and sensation of their left upper extremity | functional improvement ([2]; person with SPMS poorly responsive to other therapies): dramatic and sustained functional improvement | subgroup response [3, 5]: 0% | subgroup response (responders/treated) [3, 5]: 0/2 | patient-reported strength and sensation ([3]; four out of seventeen patients given daptomycin for acute relapses, 4 mg/kg IV): Three patients reported improvement in their strength and sensation | creatine phosphokinase level (CPK) ([3]; human, in vivo): 217 | hospitalizations ([3]; human, in vivo): Two patients were hospitalized for confusion and increased symptoms | most common side effect during the course of therapy ([3]; human, in vivo): fatigue | fatigue associated with therapy ([3]; human, in vivo, iv, 4 mg/kg): Three patients noted that daptomycin therapy was associated with significant fatigue | EDSS (last) ([3]; patient eight, SPMS, DD 12 yrs, EDSS pretx 7, 4 mg/kg × one dose, status D (discontinued)): 7 | EDSS (last) ([3]; patient eighteen, SPMS, DD 5 yrs, EDSS pretx 6, 4 mg/kg × 5 days, then 4 mg/kg q week, status D (discontinued)): 6 | EDSS (last) ([3]; patient eleven, SPMS, DD 24 yrs, EDSS pretx 6.5, 4 mg/kg/day × 14 days (relapse), status D (discontinued)): 6.5 | EDSS (last) ([3]; patient fifteen, SPMS, DD 25 yrs, EDSS pretx 6.5, 4 mg/kg/d × 5 days (two courses), 4 mg/kg/week, status A (active)): 6.5 | EDSS (last) ([3]; patient five, RRMS, DD 7 yrs, EDSS pretx 2.5, 4 mg/kg/day × 5 days, status D (discontinued)): 2.5 | EDSS (last) ([3]; patient four, RRMS, DD 15 yrs, EDSS pretx 2.5, 4 mg/kg/d × 14 days, then 4 mg/kg/q 1-2 wks, status D (discontinued)): 2 | EDSS (last) ([3]; patient fourteen, SPMS, DD 9 yrs, EDSS pretx 6, 4 mg/kg × 5 days, then 4 mg/kg q 2 wks, status A (active)): 6 | EDSS (last) ([3]; patient nine, SPMS, DD 13 yrs, EDSS pretx 6.5, 4 mg/kg/d × 5 days, 4 mg/kg q 2 wks, status A (active)): 6.5 | EDSS (last) ([3]; patient nineteen, SPMS, DD 21 yrs, EDSS pretx 6.5, 4 mg/kg × 21 days. D/Ced p 2½ wks, status D (discontinued)): 6.5 | EDSS (last) ([3]; patient one, TMS, DD 12 yrs, EDSS pretx 6, 4 mg/kg × 21 days, status D (discontinued)): 6 | EDSS (last) ([3]; patient seven, RRMS, DD 6 yrs, EDSS pretx 3.5, 4 mg/kg/d × 14 days, status D (discontinued)): 3.5 | EDSS (last) ([3]; patient seventeen, RRMS, DD 7 yrs, EDSS pretx 0, 4 mg/kg/d × 3 days, then 4 mg/kg/week, status A (active)): 1 | EDSS (last) ([3]; patient six, RPMS, DD 12 yrs, EDSS pretx 6, 4 mg/kg/d × 3 days, then 4 mg/kg/week, status D (discontinued)): 6 | EDSS (last) ([3]; patient sixteen, PPMS, DD 18 yrs, EDSS pretx 8.5, 4 mg/kg/d × 15 days, the 4 mg/kg/week, status D (discontinued)): 8.5 | EDSS (last) ([3]; patient ten, RRMS, DD 15 yrs, EDSS pretx 3, 4 mg/kg/d × 16 days, 4 mg/kg/wk × 4, then 4 mg/kg/q o wk, status A (active)): 3 | EDSS (last) [3, 6]: 3.5 | Outcome [3, 6]: No benefit | EDSS (last) ([3]; patient thirty, SPMS, DD 17 yrs, EDSS pretx 6, 4 mg/kg/d × 10 days, status D (discontinued)): 6 | EDSS (last) ([3]; patient three, RPMS, DD 18 yrs, EDSS pretx 6.5, 4 mg/kg/d × 5 days, status D (discontinued)): 6.5 | EDSS (last) ([3]; patient twelve, SPMS, DD 9 yrs, EDSS pretx 4, 4 mg/kg × 21 days, status D (discontinued)): 4 | EDSS (last) ([3]; patient twenty, SPMS, DD 16 yrs, EDSS pretx 6.5, 4 mg/kg/day × 21 days, then 4 mg/kg q 2 weeks, status A (active)): 6.5 | EDSS (last) ([3]; patient twenty-eight, SPMS, DD 15 yrs, EDSS pretx 6.5, 4 mg/kg/d × 10 days, then 4 mg/kg/wk, status A (active)): 6 | EDSS (last) ([3]; patient twenty-five, SPMS, DD 6 yrs, EDSS pretx 6.5, 4 mg/kg/d × 5 days, status D (discontinued)): 7 | EDSS (last) ([3]; patient twenty-four, SPMS, DD 15 yrs, EDSS pretx 6.5, 4 mg/kg/d × 10 days, then 4 mg/kg/wk, status A (active)): 6.5 | EDSS (last) ([3]; patient twenty-nine, SPMS, DD 16 yrs, EDSS pretx 6.5, 4 mg/kg × 21 days, then 4 mg/kg q 2 wks, status A (active)): 6.5 | EDSS (last) ([3]; patient twenty-one, SPMS, DD 11 yrs, EDSS pretx 5.5, 4 mg/kg/day × 21 days, 4 mg/kg q wk. 6 mg/kg/d times 14 days, status D (discontinued)): 6 | EDSS (last) ([3]; patient twenty-seven, SPMS, DD 10 yrs, EDSS pretx 6, 4 mg/kg/d × 5 days, 2 mg/kg q 2 wks, status A (active)): 6 | EDSS (last) ([3]; patient twenty-six, TMS, DD 23 yrs, EDSS pretx 4, 4 mg/kg/d × 14 days, status D (discontinued)): 4 | EDSS (last) ([3]; patient twenty-three, RRMS, DD 11 yrs, EDSS pretx 2, 4 mg/kg × 5 days (relapse). Repeated 3 mos later (relapse), status D (discontinued)): 2.5 | EDSS (last) ([3]; patient twenty-two, SPMS, DD 6 yrs, EDSS pretx 6.5, 4 mg/k/d × 5 days, status D (discontinued)): 6.5 | EDSS (last) ([3]; patient two, SPMS, DD 11 yrs, EDSS pretx 6, 500 mg IV × 5 weeks, 4 mg/kg × 4 wks, 4 mg/kg q wk, status A (active)): 2.5 | patients showing clinically significant improvement in symptoms of multiple sclerosis ([3]; patients with progressive and relapsing MS unresponsive to multiple therapies): 47% | subgroup response ([3]; primary progressive MS (PPMS)): 0% | subgroup response (responders/treated) ([3]; primary progressive MS (PPMS)): 0/1 | subgroup response ([3]; relapsing remitting MS (RRMS)): 50% | subgroup response (responders/treated) ([3]; relapsing remitting MS (RRMS)): 3/6 | subgroup response [3, 7]: 47% | subgroup response (responders/treated) [3, 7]: 9/19 | patient-reported strength ([3]; thirteen patients with chronic progressive multiple sclerosis, 4 mg/kg IV): Nine patients reported better strength | patients who responded to treatment ([3]; total of 30 patients): 47% | patients who responded to treatment (number) ([3]; total of 30 patients): 14 | subgroup response ([3]; transitional MS (TMS)): 100% | subgroup response (responders/treated) ([3]; transitional MS (TMS)): 2/2
